“Also recorded” adds a separate entry of the source. Where two headings read alike, the source gives them in different places.
Assays:
[1] = test system: H460 cells; assay: MTT cytotoxicity assay, H460 cells transfected with α-enolase siRNA; type: cell-based, human
Description: To establish the effectiveness of α-enolase silencing on other cancer cell types, H460 non-small cell lung cancer cells were challenged with a chemotherapeutic drug, MTT cytotoxicity assays were carried out and survival curves plotted as shown in FIG. 17.

[2] = test system: MCF-7 cells; assay: MTT cytotoxicity assay, MCF-7 cells transfected with α-enolase siRNA; type: cell-based, human
Description: For a typical siRNA transfection, 1 nmole of the annealed siRNA duplex was mixed with 1.4 ml of Opti-MEM reagent (Invitrogen). In another tube, […] of Oligofectamine reagent (Invitrogen, Carlsbad, Calif.) is mixed with […] of Opti-MEM. The two solutions are combined and mixed gently by inversion and incubated for 20 min. at RT. The resulting solution is added to the cultured cells drop by drop in a 10 cm dish (cells are approximately 40-50% confluent). The next day the transfected cells were trypsinized and seeded in 6 or 96-well plates and further incubated for the indicated amount of time (assay dependent) before further analysis.
To evaluate the effect of α-enolase depletion on the chemosensitivity of cells to cytotoxic agents, MTT assays were performed in breast adenocarcinoma MCF-7 cells transfected with α-enolase specific siRNAs. […] The predicted EC50 values (the effective dose of a compound responsible for a positive effect half-way between baseline and maximum net impact) for the α-enolase-depleted cells are shown in Table 3. Similarly, results using other chemotherapeutic drugs are also shown in the table indicating the sensitivity of breast cancer tissue to α-enolase depletion.

[3] = test system: A549 cells; assay: MTT cytotoxicity assay, A549 cells transfected with α-enolase siRNA
Description: Small interfering RNA transfected cells were seeded in triplicate into 96-well plates at 5×10^3 cells/well 48 hrs post-transfection. The cells were incubated for an additional 16-24 hrs before they were exposed to increasing concentrations of cytotoxic drugs. […] Appropriate dilutions were made in the respective media for each cell line. Following addition of drugs, incubation was continued for an additional 72 hrs. Twenty-five ml of MTT dye (5 mg/ml) were added into each well and the plate was further incubated at 37° C. for 4 hrs. The dye was solubilized with 10% Triton X-100, 0.01 N HCl and further incubated at 37° C. in the dark for 30 min. Cell viability was determined by measure of absorption at 570 nm in a Wallac multiwell plate reader (PerkinElmer, Inc., Boston, Mass.). The averages of triplicate wells were plotted using the Prism software (GraphPad Software, Inc., San Diego, Calif.).
To investigate if α-enolase is broadly involved in mediating drug resistance to microtubule targeting agents, non-small cell lung cancer cell lines A549 and H460, respectively, were transfected with α-enolase siRNA and enolase expression and viability were assessed.

[4] = test system: PC-3 cells; assay: MTT cytotoxicity assay, PC-3 cells transfected with α-enolase siRNA; type: cell-based; conditions: for EC50: Homo sapiens
[5] = test system: MDA-435 cells; assay: cells; type: cell-based, human; conditions: MDA-435 cells; for EC50: Homo sapiens, MDA435
Description: Similar tests utilizing α-enolase siRNA were performed on MDA-435 breast adenocarcinoma cells. Chemosensitivity to various drugs was determined for the MDA-435 cells as described above.

[6] = test system: CaOV3 cells; assay: MTT cytotoxicity assay, CaOV3 cells transfected with α-enolase RNAi; type: cell-based, human; conditions: for EC50: Homo sapiens, 72 hours post transfection
From the text: These observations were expanded by targeting α-enolase in the ovarian cancer cell line, CaOV3.

[7] = test system: SKOV3 cells; assay: Cytotoxicity in α-enolase siRNA transfected SKOV3 cells; conditions: data not shown
[8] = test system: A549 cells; assay: Clonogenic assay, A549 cells; type: cell-based, human; conditions: A549 cells vs control vectors
[9] = test system: SW-480 cells; assay: cells; type: cell-based, human; conditions: SW-480 cells; for EC50: Homo sapiens, SW480
Description: The colorectal adenocarcinoma cell line SW-480 was treated with α-enolase-directed siRNA using the procedures described above.

[10] = test system: α-enolase; assay: Western blot of α-enolase protein expression after siRNA transfection; type: cell-based, human; conditions: MCF-7 cells
Description: Western blot analysis utilizing anti-α-enolase antibodies was performed on MOLT4 cell extracts fractionated on SDS-PAGE (FIG. 3). Cells extract were prepared according to the protocol detailed in Example 1. […] Resolved proteins were electrophoretically transferred onto nitrocellulose membranes (Hybond, Amercham Pharmacia Biotech) for 1 hour. […] After blocking the membranes with 5% non-fat milk in 1×PBS overnight at 4° C., all antibody-binding reactions were performed in 5% non-fat milk in 1×PBS for 2 hours at room temperature for primary antibodies and for 1 hour for secondary antibodies coupled to HRP. The signal was detected by the Supersignal west Pico chemiluminescent substrate (Pierce, Rockford, Ill., USA). Two polyclonal antibodies against α-enolase were used: a goat antibody against human α-enolase (Santa Cruz Biotechology, Inc., Santa Cruz, Calif.); rabbit polyclonal antibody against human α-enolase (NNE) (MorphoSys AG, Munich, Del.). Membranes were subsequently blotted with anti-GAPDH (Novus Biologicals, Inc., Littleton, Colo.) or anti-prohibitin mouse monoclonal antibody (Lab Vision Corp., Fremont, Calif.) as controls for protein loading. To establish the importance of α-enolase to the expression of the drug-resistant phenotype in cell lines, α-enolase expression was silenced using RNAi. Briefly, the following siRNA duplexes targeting the human α-enolase mRNA were designed and purchased either from Ambion (Austin, Tex.) or Invitrogen (Carlsbad, Calif.). […] [NT] ID NO: 2) targeting the mRNA sequence corresponding to nucleotides […] from the start of the transcript (Ref Seq ID number: NM-001428). […] In another tube, […] of Oligofectamine reagent (Invitrogen, Carlsbad, Calif.) is mixed with […] of Opti-MEM. The two solutions are combined and mixed gently by inversion and incubated for 20 min. at RT. […] The next day the transfected cells were trypsinized and seeded in 6 or 96-well plates and further incubated for the indicated amount of time (assay dependent) before further analysis.

[11] = control, read-out: Control (EC50)
[12] = α-enolase specific siRNA, read-out: α-Enolase (EC50)
[13] = Homo sapiens, NCI-H460, control, read-out: Control (EC50)
[14] = Homo sapiens, NCI-H460, α-enolase specific siRNA, read-out: α-Enolase (EC50)
[15] = Homo sapiens, MCF7, MCF-7 cells, control siRNA, 72 hrs drug, read-out: Control (EC50)
[16] = Homo sapiens, MCF7, MCF-7 cells, α-enolase specific siRNA, read-out: α-Enolase (EC50)
[17] = Eno-1 siRNA, read-out: Eno-1 (EC50)
[18] = Eno-1 stealth siRNA, read-out: Eno-1 ST (EC50)
[19] = control siRNA, read-out: Control (EC50)
[20] = mock transfection, read-out: Mock (EC50)
[21] = Homo sapiens, A549, read-out: Control (EC50)
[22] = Homo sapiens, A549, read-out: α-Enolase (EC50)
[23] = Caov-3, control, read-out: Control (EC50)
[24] = Caov-3, α-enolase specific RNAi, read-out: α-Enolase (EC50)

Row | EC50 [5, 17] [nM] | EC50 [5, 18] [nM] | EC50 [5, 19] [nM] | Compound | viability of α-enolase-silenced cells under drug treatment vs control cells [1] | EC50 [4, 11] [nM] | EC50 [4, 12] [nM] | EC50 [1, 13] [nM] | EC50 [1, 14] [nM] | EC50 [2, 15] [nM] | EC50 [2, 16] [nM] | EC50 [5, 20] [nM] | chemosensitivity of α-enolase-silenced cells (words) ([3]; A549 cells) | EC50 [3, 21] [nM] | EC50 [3, 22] [nM] | further results
1 | – | – | – | N.N.[Cl][Pt][Cl] [Cisplatinum] | decreased the viability | – | – | – | – | – | – | – | – | – | – | EC50 [1, 11]: 44.4 nM; EC50 [1, 12]: 24 nM; EC50 ([2]; MCF-7 cells, control siRNA, 72 hrs drug, read-out: Control (EC50)): 118000 nM; EC50 ([2]; MCF-7 cells, α-enolase specific siRNA, read-out: α-Enolase (EC50)): 92000 nM; EC50 ([3]; read-out: Control (EC50), A549 cells, control siRNA): 327000 nM; EC50 ([3]; read-out: α-Enolase (EC50), A549 cells, α-enolase specific siRNA): 218000 nM
2 | 0.182 | 0.124 | 0.645 | CC(=O)O[C@@]12CO[C@@H]1C[C@H](O)[C@@]1(C)C(=O)[C@H](O)C3=C(C)[C@@H](OC(=O)[C@H](O)[C@@H](NC(=O)OC(C)(C)C)c4ccccc4)C[C@@](O)([C@@H](OC(=O)c4ccccc4)[C@H]21)C3(C)C [Docetaxel] | decreased the viability | 0.348 | 0.0547 | 1.36 | 0.663 | 73.5 | 36.5 | 0.226 | enhanced chemosensitivity; also recorded: significant shifts in their chemosensitivities | 7.01 | 0.351 | sensitivity of α-enolase-silenced cells [5]: Increases in sensitivity
3 | – | – | – | COc1cccc2c1C(=O)c1c(O)c3c(c(O)c1C2=O)C[C@@](O)(C(=O)CO)C[C@@H]3O[C@H]1C[C@H](N)[C@H](O)[C@H](C)O1 [Doxorubicin] | greatest decreases in viability | – | – | 119 | 30 | 90600 | 62600 | – | – | 289 | 297 | –
4 | – | – | – | COc1cc([C@@H]2c3cc4c(cc3[C@@H](O[C@@H]3O[C@@H]5CO[C@@H](C)O[C@H]5[C@H](O)[C@H]3O)[C@H]3COC(=O)[C@H]23)OCO4)cc(OC)c1O [Etoposide] | decreased the viability | – | – | 5370 | 1910 | 16100 | 27000 | – | increased sensitivity | 20500 | 10100 | –
5 | – | – | – | N[C@@H](Cc1ccc(N(CCCl)CCCl)cc1)C(=O)O [Melphalan] | – | – | – | – | – | – | – | – | – | – | – | EC50 ([2]; Homo sapiens, MCF7, 72 h, read-out: Control (EC50)): 14700 nM; EC50 ([2]; Homo sapiens, MCF7, read-out: α-Enolase (EC50)): 11500 nM
6 | – | – | – | O=C1c2c(O)ccc(O)c2C(=O)c2c(NCCNCCO)ccc(NCCNCCO)c21 [Mitoxantrone] | decreased the viability | – | – | 224 | 70.8 | 8680 | 7820 | – | increased sensitivity | 136 | 88.8 | –
7 | 0.872 | 0.917 | 0.709 | CC[C@]1(O)C[C@@H]2CN(CCc3c([nH]c4ccccc34)[C@@](C(=O)OC)(c3cc4c(cc3OC)N(C)[C@H]3[C@@](O)(C(=O)OC)[C@H](OC(C)=O)[C@]5(CC)C=CCN6CC[C@]43[C@@H]65)C2)C1 [Vinblastin] | decreased the viability | 0.0529 | 0.00553 | 3.09 | 1.54 | – | – | 1.04 | enhanced chemosensitivity | 2.39 | 0.076 | combination with enolase siRNA in cell killing ([4]; listed as vinblastine): synergistic; also recorded: augment PC-3 cell killing; decrease of chemotherapeutic drug resistance by α-enolase-directed siRNA vs mock siRNA [6]: 8 fold; EC50 [6, 23]: 0.022 nM; EC50 [6, 24]: 0.00349 nM; chemosensitivity of α-enolase-silenced cells (words) ([3]; A549 cells, listed as vinblastine): significant shifts in their chemosensitivities
8 | 0.375 | 0.324 | 0.246 | CC[C@]1(O)C[C@H]2CN(CCc3c([nH]c4ccccc34)[C@@](C(=O)OC)(c3cc4c(cc3OC)N(C=O)[C@H]3[C@@](O)(C(=O)OC)[C@H](OC(C)=O)[C@]5(CC)C=CCN6CC[C@]43[C@@H]65)C2)C1 [Vincristine] | decreased the viability | 3400 | 1690 | 4.96 | 2.03 | 163000 | 12600 | 0.667 | – | 83.3 | 20 | cytotoxic effect in α-enolase-depleted cells [7]: enhanced cytotoxic effect; sensitivity of α-enolase siRNA cells in clonogenic assay [8]: more sensitive; IC50 ([2]; Homo sapiens, MCF7, MCF-7 cells, from MTT experiments): 0.25 nM; sensitivity of α-enolase silenced cells ([2]; MCF-7 cells): substantial increase in their sensitivity; IC10 ([2]; MCF-7 cells, from MTT experiments): 0.005 nM; EC50 lower in α-enolase-depleted cells vs control siRNA treated cells ([2]; MCF-7 cells, on average): 12 fold; decrease of chemotherapeutic drug resistance by α-enolase-directed siRNA vs mock siRNA [6]: 6 fold; EC50 [6, 23]: 0.084 nM; EC50 [6, 24]: 0.0108 nM; EC50 [9, 11]: 45.8 nM; EC50 [9, 12]: 0.221 nM; more sensitive, enolase-depleted vs mock transfected cells [9]: approximately 210 times; chemosensitivity of α-enolase-depleted cells (words) ([9]; listed as vincristin): greater chemosensitivity; chemosensitivity of α-enolase-depleted cells (words) ([9]; listed as vincristine): greatly enhanced chemosensitivity; chemosensitivity of α-enolase-silenced cells (words) ([3]; A549 cells, listed as vincristin): significant shifts in their chemosensitivities; chemosensitivity of α-enolase-silenced cells (words) ([3]; A549 cells, listed as vincristine): enhanced chemosensitivity
9 | – | – | – | VEGF-directed siRNA: chemically modified Stealth siRNA duplex targeting VEGF, SEQ ID NO: 8 and 9 (chain 1 ACAAAUGUGAAUGCAGACCAAAGAA; chain 2 UUCUUUGGUCUGCAUUCACAUUUGU; chemically modified Stealth duplex, pattern not given here) | – | – | – | – | – | – | – | – | – | – | – | decrease of α-enolase expression [10]: ~100%

Source: patent US20070077583A1, “Alpha enolase-directed diagnostics and therapeutics for cancer and chemotherapeutic drug resistance” (Aurelium BioPharma, Inc., priority 2005, published 2007)
